Values of other authors, collected in patent US4086220A, “Fragments of secretin” (G. D. Searle & Co., priority 1976, dated 1978).

Conditions: on a molar basis; parent molecule = intact secretin

Substance: Amino acid fragments of the molecule from position 1 to 14: Secretin fragment, positions 1 to 14 (containing the helical portion), reported in literature (Rayford et al.) (HSDGTFTSELSRLR; Secretin; UniProt P09683 28-41, looked up, fragment)
- lipolytic activity relative to that of the parent molecule: about 0.5%
